Test results published in ChEMBL document CHEMBL1135667, “Synthesis of halogen-substituted pyridyl and pyrimidyl derivatives of [3,2-c]pyrazolo corticosteroids: strategies for the development of glucocorticoid receptor mediated imaging agents” (J Med Chem, 2002).

Molecular target: T1, Glucocorticoid receptor (Homo sapiens) (UniProt P04150)
T1 sequence (whole entry): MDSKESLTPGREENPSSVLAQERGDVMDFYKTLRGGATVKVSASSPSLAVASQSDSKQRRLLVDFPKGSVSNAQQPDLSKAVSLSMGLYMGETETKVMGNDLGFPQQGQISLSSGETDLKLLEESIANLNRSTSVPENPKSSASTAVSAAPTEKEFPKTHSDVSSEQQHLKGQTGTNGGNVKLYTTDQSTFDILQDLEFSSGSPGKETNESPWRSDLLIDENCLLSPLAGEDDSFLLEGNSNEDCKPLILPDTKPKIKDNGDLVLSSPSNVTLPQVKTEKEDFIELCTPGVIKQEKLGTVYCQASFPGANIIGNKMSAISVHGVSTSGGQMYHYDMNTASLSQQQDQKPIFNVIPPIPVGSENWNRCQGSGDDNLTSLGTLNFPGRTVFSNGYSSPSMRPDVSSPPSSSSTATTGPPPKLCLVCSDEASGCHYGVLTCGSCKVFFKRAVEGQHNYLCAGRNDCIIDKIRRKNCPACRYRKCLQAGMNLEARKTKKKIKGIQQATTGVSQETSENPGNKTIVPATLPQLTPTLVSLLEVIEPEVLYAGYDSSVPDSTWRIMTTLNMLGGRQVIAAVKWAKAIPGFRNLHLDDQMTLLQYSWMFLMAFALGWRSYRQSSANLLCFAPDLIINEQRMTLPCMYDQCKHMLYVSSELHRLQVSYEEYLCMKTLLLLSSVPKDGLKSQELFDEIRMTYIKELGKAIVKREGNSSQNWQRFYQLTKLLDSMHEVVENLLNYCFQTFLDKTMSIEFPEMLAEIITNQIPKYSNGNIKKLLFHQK
Conditions: HeLa
Description: Relative transcriptional activation in HeLa cells expressing glucocorticoid receptor

Going from `C[C@@H]1CC2C3CCC4=Cc5c(cnn5-c5ccc(Cl)nc5)CC4(C)C3C(O)CC2(C)[C@@]1(O)C(=O)CO` (some centres not stated) to `C[C@@H]1CC2C3CCC4=Cc5c(cnn5-c5ccc(F)nc5)CC4(C)C3C(O)CC2(C)[C@@]1(O)C(=O)CO` (some centres not stated), the RSA rises from 24 to 436.

First: C[C@@H]1C[C@H]2[C@@H]3CCC4=CC(=O)C=C[C@]4(C)[C@@]3(F)[C@@H](O)C[C@]2(C)[C@@]1(O)C(=O)CO
Second: C[C@@H]1CC2C3CCC4=Cc5c(cnn5-c5cccnc5F)CC4(C)C3C(O)CC2(C)[C@@]1(O)C(=O)CO (some centres not stated)
The RSA of the first is lower: 100 for the first, 121 for the second.

First: C[C@@H]1CC2C3CCC4=Cc5c(cnn5-c5ccc(F)cc5)CC4(C)C3C(O)CC2(C)C1(O)C(=O)CO (some centres not stated)
Second: C[C@@H]1CC2C3CCC4=Cc5c(cnn5-c5ccncc5)CC4(C)C3C(O)CC2(C)[C@@]1(O)C(=O)CO (some centres not stated)
The RSA of the first is higher: 483 for the first, 135 for the second.

Compared with `C[C@@H]1CC2C3CCC4=Cc5c(cnn5-c5ccccn5)CC4(C)C3C(O)CC2(C)[C@@]1(O)C(=O)CO` (some centres not stated), `C[C@@H]1CC2C3CCC4=Cc5c(cnn5-c5ccncn5)CC4(C)C3C(O)CC2(C)[C@@]1(O)C(=O)CO` (some centres not stated) is lower in RSA: 30 for the first, 0 for the second.

Compared with `C[C@@H]1CC2C3CCC4=Cc5c(cnn5-c5cccnc5)CC4(C)C3C(O)CC2(C)[C@@]1(O)C(=O)CO` (some centres not stated), `C[C@@H]1CC2C3CCC4=Cc5c(cnn5-c5cnccc5Cl)CC4(C)C3C(O)CC2(C)[C@@]1(O)C(=O)CO` (some centres not stated) is lower in RSA: 255 for the first, 33 for the second.

First: C[C@@H]1CC2C3CCC4=Cc5c(cnn5-c5ncccn5)CC4(C)C3C(O)CC2(C)[C@@]1(O)C(=O)CO (some centres not stated)
Second: C[C@@H]1CC2C3CCC4=Cc5c(cnn5-c5cccnc5Cl)CC4(C)C3C(O)CC2(C)[C@@]1(O)C(=O)CO (some centres not stated)
The RSA of the first is lower: 0 for the first, 97 for the second.
